Test [1] concerns the target Ba/F3 ERBB2 YVMA (Homo sapiens, UniProt P04626, DUP772-775, cells depend on it). Briefly: Cell viability assay (CellTiter Glo) in Ba/F3 cells engineered to express ERBB2 YVMA. Format: cell-based, mouse. The settings on record: Ba/F3 cells expressing human ERBB2 YVMA mutant, 72 hours, % viability, read-out: Ba/F3 ERBB2 YVMA IC50. A digest of the protocol: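 IL-3-independent mouse Ba/F3 line stably transduced with human ERBB2 YVMA, seeded at 3000 cells/well, exposed to serially diluted compound (≤0.1% DMSO) for 72 h at 37° C. ATP read by CellTiter Glo luminescence, normalised to DMSO and media-only controls; sigmoidal nonlinear regression fit.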

The target in test [2] is T1, phosphorylated ERBB2 (pERBB2) (Homo sapiens, UniProt P04626).
T1 construct: endogenous in cells; host or cells: BT-474
Briefly: Detection of phosphorylated ERBB2 (pERBB2) by ELISA in BT-474 cells. The test is classed as cell-based. The conditions noted are these: four hour incubation with compound. In a few lines:
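BT-474 cells treated 4 h at 37 °C, 5% CO2 with four-fold dilutions (10 μM to 0.01 nM final). Lysates analysed by ELISA for pERBB2, TMB read at OD 450 nm. % relative activity normalised to no-cell (low) and 0.1% DMSO-treated (high) controls.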
Background: ELISA stands for enzyme-linked immunosorbent assay.

The target in test [3] is T2, phosphorylated EGFR (pEGFR) (Homo sapiens, UniProt P00533).
T2 construct: performed to measure phosphorylated EGFR levels using A431 cells; endogenous in cells; host or cells: A431
Briefly: Detection of phosphorylated EGFR (pEGFR) in EGF-stimulated A431 cells (AlphaLISA). The test is classed as cell-based. The conditions noted are these: A431 cells (10% FBS), 4 hours incubation, EGF 30 ng/mL for 10 minutes. In a few lines:
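Cells in 10% FBS treated with compound 4 h at 37° C., then stimulated 10 min with 30 ng/mL EGF, lysed, and pEGFR measured by AlphaLISA. Inhibition normalized to DMSO and staurosporine controls; IC50 from four-parameter logistic fit.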
In general terms: In Alpha technology, singlet oxygen from a donor bead excites a nearby acceptor bead.

Where only a bound is given, the exact number is not on record here.

T1 sequence (P04626 23-1255): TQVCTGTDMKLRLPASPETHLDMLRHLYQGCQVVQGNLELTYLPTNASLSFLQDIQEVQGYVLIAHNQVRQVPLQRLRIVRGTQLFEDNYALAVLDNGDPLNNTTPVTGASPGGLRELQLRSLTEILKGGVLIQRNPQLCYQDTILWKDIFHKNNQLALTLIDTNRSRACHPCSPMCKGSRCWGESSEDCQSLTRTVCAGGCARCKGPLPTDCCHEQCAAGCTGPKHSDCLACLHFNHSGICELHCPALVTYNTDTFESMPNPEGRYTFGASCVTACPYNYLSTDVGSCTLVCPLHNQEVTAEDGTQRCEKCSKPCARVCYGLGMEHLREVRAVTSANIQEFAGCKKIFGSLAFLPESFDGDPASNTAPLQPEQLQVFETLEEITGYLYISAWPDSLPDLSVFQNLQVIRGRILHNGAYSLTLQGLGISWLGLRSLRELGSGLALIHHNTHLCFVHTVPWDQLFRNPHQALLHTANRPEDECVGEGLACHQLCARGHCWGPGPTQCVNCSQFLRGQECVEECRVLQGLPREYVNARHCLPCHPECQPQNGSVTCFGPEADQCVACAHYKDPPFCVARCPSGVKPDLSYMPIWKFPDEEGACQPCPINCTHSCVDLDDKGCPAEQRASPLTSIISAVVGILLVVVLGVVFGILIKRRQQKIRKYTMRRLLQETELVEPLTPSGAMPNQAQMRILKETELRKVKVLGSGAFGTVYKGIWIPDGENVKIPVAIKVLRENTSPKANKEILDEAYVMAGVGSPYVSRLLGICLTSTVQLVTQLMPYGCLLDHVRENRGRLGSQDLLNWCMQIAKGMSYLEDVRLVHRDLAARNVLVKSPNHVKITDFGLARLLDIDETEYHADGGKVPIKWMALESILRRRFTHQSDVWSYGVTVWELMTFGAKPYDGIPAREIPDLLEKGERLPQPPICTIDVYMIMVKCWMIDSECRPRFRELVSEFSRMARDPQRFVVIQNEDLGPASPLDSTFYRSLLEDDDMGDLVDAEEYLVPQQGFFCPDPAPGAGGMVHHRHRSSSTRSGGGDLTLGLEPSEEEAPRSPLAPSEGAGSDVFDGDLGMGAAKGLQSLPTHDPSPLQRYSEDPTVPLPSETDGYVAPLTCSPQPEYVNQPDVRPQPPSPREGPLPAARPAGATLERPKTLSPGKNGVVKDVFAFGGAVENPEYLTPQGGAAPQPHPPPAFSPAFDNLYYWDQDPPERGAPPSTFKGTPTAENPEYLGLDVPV
T2 sequence (P00533 25-1210): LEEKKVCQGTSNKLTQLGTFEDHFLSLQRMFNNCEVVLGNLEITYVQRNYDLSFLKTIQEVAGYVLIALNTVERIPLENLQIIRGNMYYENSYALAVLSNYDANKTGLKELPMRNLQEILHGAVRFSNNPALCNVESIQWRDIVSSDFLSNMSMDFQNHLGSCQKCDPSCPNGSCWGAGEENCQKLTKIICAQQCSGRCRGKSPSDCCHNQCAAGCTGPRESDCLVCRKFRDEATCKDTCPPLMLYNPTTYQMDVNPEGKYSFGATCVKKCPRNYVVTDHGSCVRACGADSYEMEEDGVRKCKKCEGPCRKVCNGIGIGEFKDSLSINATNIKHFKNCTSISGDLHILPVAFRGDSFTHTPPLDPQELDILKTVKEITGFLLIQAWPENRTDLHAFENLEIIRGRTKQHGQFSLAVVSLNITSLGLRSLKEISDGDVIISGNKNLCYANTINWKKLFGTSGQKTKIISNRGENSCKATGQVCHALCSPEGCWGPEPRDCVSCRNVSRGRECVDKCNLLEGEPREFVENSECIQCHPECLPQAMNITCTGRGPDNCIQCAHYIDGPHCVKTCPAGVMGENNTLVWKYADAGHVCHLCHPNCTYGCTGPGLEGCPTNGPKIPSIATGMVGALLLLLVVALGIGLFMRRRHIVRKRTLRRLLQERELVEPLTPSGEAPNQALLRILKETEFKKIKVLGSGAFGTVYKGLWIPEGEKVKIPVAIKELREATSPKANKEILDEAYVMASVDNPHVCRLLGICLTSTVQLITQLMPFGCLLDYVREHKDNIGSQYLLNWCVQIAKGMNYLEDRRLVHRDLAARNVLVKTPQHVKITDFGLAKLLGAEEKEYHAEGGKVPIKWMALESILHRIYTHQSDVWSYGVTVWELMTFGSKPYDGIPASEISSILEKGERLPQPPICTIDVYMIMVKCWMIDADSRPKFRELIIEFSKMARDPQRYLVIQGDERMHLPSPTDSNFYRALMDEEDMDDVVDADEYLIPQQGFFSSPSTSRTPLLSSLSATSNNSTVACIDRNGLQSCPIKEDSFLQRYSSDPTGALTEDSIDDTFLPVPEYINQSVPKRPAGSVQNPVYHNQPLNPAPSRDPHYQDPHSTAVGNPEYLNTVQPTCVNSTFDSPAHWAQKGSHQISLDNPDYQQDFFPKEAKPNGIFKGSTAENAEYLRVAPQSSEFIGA
Chain of Ba/F3 ERBB2 YVMA (P04626 with tags, fused parts or gaps DUP772-775): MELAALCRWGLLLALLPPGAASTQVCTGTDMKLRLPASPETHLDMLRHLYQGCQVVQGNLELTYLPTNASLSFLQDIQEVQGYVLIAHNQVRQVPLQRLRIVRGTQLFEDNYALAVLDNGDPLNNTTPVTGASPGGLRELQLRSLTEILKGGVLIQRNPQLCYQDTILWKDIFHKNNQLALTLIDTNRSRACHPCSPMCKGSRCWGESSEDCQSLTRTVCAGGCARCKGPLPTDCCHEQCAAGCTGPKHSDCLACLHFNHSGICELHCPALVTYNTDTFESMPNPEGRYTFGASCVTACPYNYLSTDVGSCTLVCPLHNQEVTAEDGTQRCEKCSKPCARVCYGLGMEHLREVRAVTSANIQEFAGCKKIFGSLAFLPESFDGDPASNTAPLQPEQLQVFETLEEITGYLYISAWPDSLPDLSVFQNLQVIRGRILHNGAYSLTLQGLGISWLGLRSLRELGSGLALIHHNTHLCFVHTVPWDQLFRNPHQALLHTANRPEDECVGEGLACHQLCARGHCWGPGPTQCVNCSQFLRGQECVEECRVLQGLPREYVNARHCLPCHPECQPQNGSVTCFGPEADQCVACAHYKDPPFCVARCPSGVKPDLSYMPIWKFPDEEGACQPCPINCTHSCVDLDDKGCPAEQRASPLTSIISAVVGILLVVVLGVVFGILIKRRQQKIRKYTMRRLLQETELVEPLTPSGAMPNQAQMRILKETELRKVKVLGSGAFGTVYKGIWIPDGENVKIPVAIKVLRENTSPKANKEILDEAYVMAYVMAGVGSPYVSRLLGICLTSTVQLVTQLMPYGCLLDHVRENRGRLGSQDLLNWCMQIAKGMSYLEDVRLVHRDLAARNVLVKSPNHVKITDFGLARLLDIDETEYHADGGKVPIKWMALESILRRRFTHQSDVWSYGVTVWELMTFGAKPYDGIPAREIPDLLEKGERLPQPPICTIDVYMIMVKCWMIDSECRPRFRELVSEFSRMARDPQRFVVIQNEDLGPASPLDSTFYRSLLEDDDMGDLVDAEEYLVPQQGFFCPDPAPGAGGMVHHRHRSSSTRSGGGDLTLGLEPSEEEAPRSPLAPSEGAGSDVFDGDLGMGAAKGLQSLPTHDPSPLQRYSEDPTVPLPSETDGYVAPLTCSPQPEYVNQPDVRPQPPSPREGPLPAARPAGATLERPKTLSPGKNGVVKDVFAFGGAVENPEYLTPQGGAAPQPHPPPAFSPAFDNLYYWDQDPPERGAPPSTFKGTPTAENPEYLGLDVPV

What is called IC50 is the concentration at which inhibition is half-maximal. Consider `C=CC(=O)N1CCN(c2cc3c(Nc4ccc(Cc5ccc6c(c5)ncn6C)c(C)c4)ncnc3cn2)CC1` [Compound 83, 1-{4-[4-({3-methyl-4-[(1-methyl-1,3-benzodiazol-5-yl)methyl]phenyl}amino)pyrido[3,4-d]pyrimidin-6-yl]piperazin-1-yl}prop-2-en-1-one; formic acid], for which, in test [1], the GI50 was 0.0125 µM. Also, the IC50 was 0.0255 µM in test [2] and 1.39 µM in test [3].

Regarding `C=CC(=O)N1CCN(c2ccc3ncnc(Nc4ccc(Oc5ccn6ncnc6c5)c(C)c4)c3c2)C[C@H]1C` [Compound 35, 1-[(2R)-2-methyl-4-{4-[(3-methyl-4-{[1,2,4]triazolo[1,5-a]pyridin-7-yloxy}phenyl)amino]quinazolin-6-yl}piperazin-1-yl]prop-2-en-1-one], the GI50 in test [1] stood at 0.00788 µM. The half-maximal inhibitory concentration (IC50) in test [2] stood at 0.0136 µM; in test [3], 0.823 µM.

For `C=CC(=O)N1CCN(c2ncc3ncnc(Nc4ccc(Cc5ccn6ncnc6c5)c(C)c4)c3n2)CC1` [Compound 115, 1-(4-(8-((4-([1,2,4]triazolo[1,5-a]pyridin-7-ylmethyl)-3-methylphenyl)amino)pyrimido[5,4-d]pyrimidin-2-yl)piperazin-1-yl)prop-2-en-1-one], the GI50 in test [1] came to 0.00929 µM. Moreover, the IC50 in test [2] amounted to 0.0169 µM; in test [3], 4.29 µM.

As to `C=CC(=O)N1CCN(c2ccc3ncnc(Nc4ccc(Cc5ccn6ncnc6c5)c(C)c4)c3c2)C[C@H]1C` [Compound 112, (R)-1-(4-(4-((4-([1,2,4]triazolo[1,5-a]pyridin-7-ylmethyl)-3-methylphenyl)amino)quinazolin-6-yl)-2-methylpiperazin-1-yl)prop-2-en-1-one], in test [1], the GI50 turned out to be 0.028 µM. For the same molecule, the figures for the IC50 in test [2] and in test [3] were 0.0331 µM and greater than 10 µM, respectively.

As to `C=CC(=O)N1CCN(c2ccc3ncnc(Nc4ccc(Oc5ccn6ncnc6c5)c(C)c4)c3n2)C[C@@H]1C` [Compound 9, 1-[(2S)-2-methyl-4-{4-[(3-methyl-4-{[1,2,4]triazolo[1,5-a]pyridin-7-yloxy}phenyl)amino]pyrido[3,2-d]pyrimidin-6-yl}piperazin-1-yl]prop-2-en-1-one], the GI50 in test [1] was 0.0075 µM. Moreover, the results for the IC50 in test [2] and in test [3] were 0.0107 µM and 1.03 µM, respectively.

Take `C=CC(=O)N1CCN(c2ccc3ncnc(Nc4ccc(Oc5ccn6ncnc6c5)c(C)c4)c3n2)CC1` [Compound 4, 1-(4-{4-[(3-methyl-4-{[1,2,4]triazolo[1,5-a]pyridin-7-yloxy}phenyl)amino]pyrido[3,2-d]pyrimidin-6-yl}piperazin-1-yl)prop-2-en-1-one]: the GI50 in test [1] was determined as 0.00819 µM. The IC50 in test [2] came out at 0.00844 µM; in test [3], 0.371 µM.

Turning to `C=CC(=O)N1CC2CCC(C1)N2c1ccc2ncnc(Nc3ccc(Cc4ccn5ncnc5c4)c(C)c3)c2n1` [Compound 95, 1-(8-{4-[(3-methyl-4-{[1,2,4]triazolo[1,5-a]pyridin-7-ylmethyl}phenyl)amino]pyrido[3,2-d]pyrimidin-6-yl}-3,8-diazabicyclo[3.2.1]octan-3-yl)prop-2-en-1-one], in test [1], the GI50 is 0.00696 µM. Besides, the IC50 in test [2] came to 0.0212 µM; in test [3], 1.8 µM.

As for `Cc1cc(Nc2ncnc3ccc(N4CCN(C(=O)/C=C/CN(C)C)[C@H](C)C4)nc23)ccc1Cc1ccc2c(c1)ncn2C` [Compound 121, (R,E)-4-(dimethylamino)-1-(2-methyl-4-(4-((3-methyl-4-((1-methyl-1H-benzo[d]imidazol-5-yl)methyl)phenyl)amino)pyrido[3,2-d]pyrimidin-6-yl)piperazin-1-yl)but-2-en-1-one], the GI50 in test [1] came out at 0.00908 µM. Moreover, the concentration for half-maximal inhibition (IC50) was 0.0559 µM in test [2] and 6.74 µM in test [3].

With `C=CC(=O)N1CCN(c2cc3c(Nc4ccc(Cc5ccn6ncnc6c5)c(C)c4)ncnc3cn2)C[C@H]1C` [Compound 52, (R)-1-(4-(4-((4-([1,2,4]triazolo[1,5-a]pyridin-7-ylmethyl)-3-methylphenyl)amino)pyrido[3,4-d]pyrimidin-6-yl)-2-methylpiperazin-1-yl)prop-2-en-1-one], the GI50 in test [1] was determined as 0.12 µM. The figures for the 50% inhibitory concentration (IC50) in test [2] and in test [3] were 0.0506 µM and greater than 10 µM, respectively.

In the case of `CC#CC(=O)N1CCN(c2ccc3ncnc(Nc4ccc(Oc5ccn6ncnc6c5)c(C)c4)c3n2)[C@@H](C)C1` [Compound 25, 1-[(3S)-3-methyl-4-{4-[(3-methyl-4-{[1,2,4]triazolo[1,5-a]pyridin-7-yloxy}phenyl)amino]pyrido[3,2-d]pyrimidin-6-yl}piperazin-1-yl]but-2-yn-1-one], the GI50 in test [1] turned out to be 0.0234 µM. Besides, the IC50 in test [2] was 0.0635 µM; in test [3] it was greater than 10 µM.

For `Cc1cc(Nc2ncnc3ccc(N4CCN(C(=O)/C=C/CN(C)C)CC4)nc23)ccc1Cc1ccn2ncnc2c1` [Compound 87, (E)-1-(4-(4-((4-([1,2,4]triazolo[1,5-a]pyridin-7-ylmethyl)-3-methylphenyl)amino)pyrido[3,2-d]pyrimidin-6-yl)piperazin-1-yl)-4-(dimethylamino)but-2-en-1-one], the GI50 in test [1] came out at 0.0173 µM. The IC50 was 0.0129 µM in test [2] and 2.42 µM in test [3].

With `C=CC(=O)N1CCN(c2ccc3ncnc(Nc4ccc(CN5CCn6ncnc6C5)c(C)c4)c3n2)CC1` [Compound 34, 1-(4-{4-[(3-methyl-4-{5H,6H,8H-[1,2,4]triazolo[1,5-a]pyrazin-7-ylmethyl}phenyl)amino]pyrido[3,2-d]pyrimidin-6-yl}piperazin-1-yl)prop-2-en-1-one], the GI50 in test [1] worked out at 0.255 µM. Also, the results for the IC50 in test [2] and in test [3] were 0.0689 µM and greater than 10 µM, respectively.

With `C=CC(=O)N1CCN(c2cc3c(Nc4ccc(CN5CCn6ncnc6C5)c(C)c4)ncnc3cn2)CC1` [Compound 99, 1-(4-{4-[(3-methyl-4-{5H,6H,8H-[1,2,4]triazolo[1,5-a]pyrazin-7-ylmethyl}phenyl)amino]pyrido[3,4-d]pyrimidin-6-yl}piperazin-1-yl)prop-2-en-1-one], the GI50 in test [1] is greater than 0.5 µM. Moreover, the IC50 in test [2] was 0.227 µM; in test [3], greater than 10 µM.

Consider `C=CC(=O)N1CCC[C@@H](Nc2ccc3ncnc(Nc4ccc(Oc5ccn6ncnc6c5)c(C)c4)c3n2)C1` [Compound 42, 1-[(3R)-3-({4-[(3-methyl-4-{[1,2,4]triazolo[1,5-a]pyridin-7-yloxy}phenyl)amino]pyrido[3,2-d]pyrimidin-6-yl}amino)piperidin-1-yl]prop-2-en-1-one], for which the GI50 in test [1] was determined as 0.219 µM. For the same molecule, the IC50 in test [2] was 0.0297 µM; in test [3] it was greater than 10 µM.

On to `C=CC(=O)N1CCN(c2ccc3ncnc(Nc4ccc(Cc5ccc6c(c5)ncn6C)c(C)c4)c3n2)CC1` [Compound 82, 1-{4-[4-({3-methyl-4-[(1-methyl-1,3-benzodiazol-5-yl)methyl]phenyl}amino)pyrido[3,2-d]pyrimidin-6-yl]piperazin-1-yl}prop-2-en-1-one], for which the GI50 in test [1] was determined as 0.0939 µM. Besides, the IC50 in test [2] amounted to 0.0541 µM; in test [3] it was 2.09 µM.

For the molecule `C=CC(=O)N1CCN(c2ncc3ncnc(Nc4ccc(Cc5ccc6c(c5)ncn6C)c(C)c4)c3n2)CC1` [Compound 84, 1-{4-[8-({3-methyl-4-[(1-methyl-1,3-benzodiazol-5-yl)methyl]phenyl}amino)-[1,3]diazino[5,4-d]pyrimidin-2-yl]piperazin-1-yl}prop-2-en-1-one], in test [1], the GI50 was found to be 0.0107 µM. The figures for the IC50 in test [2] and in test [3] were 0.0252 µM and greater than 10 µM, respectively.

The record behind these values is patent publication US20250136595A1, “ACYLATED HETEROCYCLIC QUINAZOLINE DERIVATIVES AS INHIBITORS OF ERBB2” (Enliven Inc., priority 2022, published 2025).
